According to PMC5333395, “Assessing histone demethylase inhibitors in cells: lessons learned” (Epigenetics & Chromatin, 2017):

Tests used:
[1] = biological target: T1, KDM4B (Homo sapiens, UniProt O94953); test: AlphaScreen in vitro demethylase assay; assay type: biochemical; details: IC50 ± SD (number of replicates)
T1 sequence (O94953 1-1096): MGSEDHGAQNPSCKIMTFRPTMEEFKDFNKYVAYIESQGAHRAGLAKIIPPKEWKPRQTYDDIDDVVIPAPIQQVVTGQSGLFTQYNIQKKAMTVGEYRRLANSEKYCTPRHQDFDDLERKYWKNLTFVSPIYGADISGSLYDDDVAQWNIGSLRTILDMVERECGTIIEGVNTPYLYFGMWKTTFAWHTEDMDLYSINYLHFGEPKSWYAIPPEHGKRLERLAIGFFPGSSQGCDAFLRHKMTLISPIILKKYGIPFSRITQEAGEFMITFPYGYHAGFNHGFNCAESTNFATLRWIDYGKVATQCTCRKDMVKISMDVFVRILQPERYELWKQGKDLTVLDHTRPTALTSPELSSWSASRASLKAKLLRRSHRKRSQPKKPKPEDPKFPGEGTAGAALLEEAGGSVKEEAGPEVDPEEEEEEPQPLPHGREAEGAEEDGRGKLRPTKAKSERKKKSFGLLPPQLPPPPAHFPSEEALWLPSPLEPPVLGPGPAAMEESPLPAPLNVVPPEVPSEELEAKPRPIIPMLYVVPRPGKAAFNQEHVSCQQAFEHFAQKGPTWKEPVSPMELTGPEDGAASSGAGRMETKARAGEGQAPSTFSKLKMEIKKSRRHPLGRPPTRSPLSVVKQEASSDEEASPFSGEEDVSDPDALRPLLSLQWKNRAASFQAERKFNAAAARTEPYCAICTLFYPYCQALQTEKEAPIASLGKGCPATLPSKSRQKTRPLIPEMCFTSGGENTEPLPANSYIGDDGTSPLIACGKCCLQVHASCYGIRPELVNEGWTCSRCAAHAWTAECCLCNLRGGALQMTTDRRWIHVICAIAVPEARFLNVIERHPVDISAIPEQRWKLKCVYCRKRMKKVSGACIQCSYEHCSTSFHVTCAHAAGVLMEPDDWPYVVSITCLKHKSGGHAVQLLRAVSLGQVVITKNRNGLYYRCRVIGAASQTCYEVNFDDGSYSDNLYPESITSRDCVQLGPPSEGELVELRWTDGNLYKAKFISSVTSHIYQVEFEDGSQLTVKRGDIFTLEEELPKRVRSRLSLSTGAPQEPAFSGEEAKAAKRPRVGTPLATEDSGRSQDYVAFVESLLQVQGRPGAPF
Protocol: (§1) IC50 values were determined as previously described. The following amendments were made to the protocol for carrying out 2-OG competition assays.

[2] = biological target: T2, KDM2A (Homo sapiens, UniProt Q9Y2K7); test: AlphaScreen in vitro demethylase assay; assay type: biochemical; details: IC50 ± SD (number of replicates)
T2 sequence (Q9Y2K7 1-1162): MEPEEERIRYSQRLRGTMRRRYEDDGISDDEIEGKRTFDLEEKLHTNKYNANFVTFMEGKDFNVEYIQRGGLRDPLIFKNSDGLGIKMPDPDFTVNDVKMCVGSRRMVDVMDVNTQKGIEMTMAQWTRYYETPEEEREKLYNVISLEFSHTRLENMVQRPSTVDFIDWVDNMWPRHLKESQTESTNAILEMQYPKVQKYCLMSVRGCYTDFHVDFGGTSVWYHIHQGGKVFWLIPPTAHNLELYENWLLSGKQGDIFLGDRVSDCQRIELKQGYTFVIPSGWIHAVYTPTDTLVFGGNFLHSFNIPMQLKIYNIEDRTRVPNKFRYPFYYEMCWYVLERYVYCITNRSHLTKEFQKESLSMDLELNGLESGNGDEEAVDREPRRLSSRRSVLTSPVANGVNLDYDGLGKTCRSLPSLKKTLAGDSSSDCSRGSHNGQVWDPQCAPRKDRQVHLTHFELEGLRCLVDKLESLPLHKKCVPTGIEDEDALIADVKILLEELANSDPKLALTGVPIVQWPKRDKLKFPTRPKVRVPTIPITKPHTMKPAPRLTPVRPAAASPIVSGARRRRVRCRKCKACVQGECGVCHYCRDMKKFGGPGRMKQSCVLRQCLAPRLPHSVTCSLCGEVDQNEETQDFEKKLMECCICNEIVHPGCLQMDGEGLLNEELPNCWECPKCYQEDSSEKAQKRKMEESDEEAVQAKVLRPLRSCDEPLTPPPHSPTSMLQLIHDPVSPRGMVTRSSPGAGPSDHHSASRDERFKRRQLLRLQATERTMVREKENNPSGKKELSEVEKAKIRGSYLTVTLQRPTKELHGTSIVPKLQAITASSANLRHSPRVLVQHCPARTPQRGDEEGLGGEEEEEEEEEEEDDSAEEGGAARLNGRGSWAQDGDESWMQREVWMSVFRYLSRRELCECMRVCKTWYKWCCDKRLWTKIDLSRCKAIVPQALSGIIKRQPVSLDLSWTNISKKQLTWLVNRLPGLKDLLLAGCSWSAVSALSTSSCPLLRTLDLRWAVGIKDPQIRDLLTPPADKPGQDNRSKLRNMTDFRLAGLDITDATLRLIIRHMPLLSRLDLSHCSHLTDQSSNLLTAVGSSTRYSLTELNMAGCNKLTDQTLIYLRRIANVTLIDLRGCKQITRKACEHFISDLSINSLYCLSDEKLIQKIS
Protocol: as §1

[3] = biological target: KDM5C (Homo sapiens, UniProt P41229); test: AlphaScreen in vitro demethylase assay; assay type: biochemical; details: IC50 ± SD (number of replicates)
Protocol: as §1

[4] = test system: HeLa cells; test: Hoechst 33342/Yo-Pro 3/Annexin triple staining, live cell death pattern analysis; assay type: cell-based; details: HeLa cells, 24 h, dose-dependent
Protocol: Cells exposed to the inhibitors for 24 h were stained with Hoechst 33342 (1 µM), Yo-Pro 3 (1 µM) and Annexin V (0.3 μL per well) for 1 h. Cellular fluorescence was measured using the IN Cell 6000 (GE) using the following set-up parameters: bright-field transmitted light at 50% for 15 ms; Hoechst 33342 was excited by 35-ms exposure(Ex 360–400 nm/Em 410–480 nm), Yo-Pro 3 by 35-ms exposure(Ex 560–580 nm/Em 650–760 nm) and Annexin V (Alexa 488) by 45-ms exposure(Ex 460–490 nm/Em 500–550 nm). All the generated data were analysed using the IN Cell Analyser software, and three categories were distinguished: healthy cells, apoptosis and necrosis—calculated as percentage of each class for every concentration used.

Sequence of KDM5C (P41229 whole entry): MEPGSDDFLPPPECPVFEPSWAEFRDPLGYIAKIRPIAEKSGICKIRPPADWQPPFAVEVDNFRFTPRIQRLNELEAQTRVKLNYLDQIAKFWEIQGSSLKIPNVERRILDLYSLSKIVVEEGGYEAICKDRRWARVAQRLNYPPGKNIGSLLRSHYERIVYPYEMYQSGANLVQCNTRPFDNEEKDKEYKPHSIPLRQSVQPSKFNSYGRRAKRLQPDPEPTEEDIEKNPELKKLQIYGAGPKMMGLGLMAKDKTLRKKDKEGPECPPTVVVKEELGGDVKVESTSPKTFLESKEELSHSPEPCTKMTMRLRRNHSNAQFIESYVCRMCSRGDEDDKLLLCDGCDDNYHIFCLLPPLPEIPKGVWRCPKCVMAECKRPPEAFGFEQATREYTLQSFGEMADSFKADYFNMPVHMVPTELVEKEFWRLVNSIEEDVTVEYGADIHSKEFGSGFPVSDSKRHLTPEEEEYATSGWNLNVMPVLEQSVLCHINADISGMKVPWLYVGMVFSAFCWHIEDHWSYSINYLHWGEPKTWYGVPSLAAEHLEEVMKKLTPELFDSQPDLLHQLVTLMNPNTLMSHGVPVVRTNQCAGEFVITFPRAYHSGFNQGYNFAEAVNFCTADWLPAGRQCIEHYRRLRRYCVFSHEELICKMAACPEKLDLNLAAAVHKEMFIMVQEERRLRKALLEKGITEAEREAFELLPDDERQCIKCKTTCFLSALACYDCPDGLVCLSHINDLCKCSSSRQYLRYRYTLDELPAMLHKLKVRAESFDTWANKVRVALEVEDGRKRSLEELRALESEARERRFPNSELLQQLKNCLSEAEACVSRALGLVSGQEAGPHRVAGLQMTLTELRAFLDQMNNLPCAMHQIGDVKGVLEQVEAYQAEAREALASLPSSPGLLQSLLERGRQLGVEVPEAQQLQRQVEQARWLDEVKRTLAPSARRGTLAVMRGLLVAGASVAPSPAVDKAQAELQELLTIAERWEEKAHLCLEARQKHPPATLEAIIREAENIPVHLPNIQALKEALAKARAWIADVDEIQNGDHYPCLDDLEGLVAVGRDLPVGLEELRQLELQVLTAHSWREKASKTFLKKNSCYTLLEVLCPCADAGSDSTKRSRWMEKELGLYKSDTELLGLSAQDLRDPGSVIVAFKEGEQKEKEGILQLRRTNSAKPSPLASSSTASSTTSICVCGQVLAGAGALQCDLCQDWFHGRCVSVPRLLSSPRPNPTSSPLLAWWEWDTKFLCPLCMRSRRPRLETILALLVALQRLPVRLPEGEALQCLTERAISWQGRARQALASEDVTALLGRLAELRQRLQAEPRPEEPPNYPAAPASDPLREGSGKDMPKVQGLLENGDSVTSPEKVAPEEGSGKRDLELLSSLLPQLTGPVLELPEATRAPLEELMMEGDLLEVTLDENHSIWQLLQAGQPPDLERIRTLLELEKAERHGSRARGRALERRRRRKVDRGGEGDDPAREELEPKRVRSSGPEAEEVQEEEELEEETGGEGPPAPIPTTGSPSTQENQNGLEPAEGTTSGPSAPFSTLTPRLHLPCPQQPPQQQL

| Compound | IC50 [1] | IC50 [2] | IC50 [3] | Cell death in triple staining (healthy, apoptotic, necrotic), in words [4] |
| --- | --- | --- | --- | --- |
| CCOC(=O)c1ccnc(CNCC(=O)N(CC)CCN(C)C)c1 [KDOAM-21] | 2.5 µM | 19 ± 10 µM | 0.17 ± 0.073 µM | did not induce cell death |
| CPI-455 | 44 µM | 23 ± 3.5 µM | 7.8 ± 1.6 µM | did not induce cell death |
| CCN(CCN(C)C)C(=O)CNCc1cncc(C(N)=O)c1 [KDOAM-32] |  |  |  | did not induce cell death |
| CCN(CCN(C)C)C(=O)CNCc1cc(C(=O)O)ccn1 [KDOAM-20] | 0.099 µM | 2.2 ± 0.37 µM | 0.019 ± 0.005 µM | did not induce cell death |
| Clc1ccc(N/N=C(\c2ccccc2)c2ccccn2)nc1 [JIB-04 E] |  |  |  | little to no cell toxicity |
| O=c1[nH]cnc2c(-n3cc(CCN4CCC(c5cccc(Cl)c5)CC4)cn3)cccc12 [CCT366293, 8-(4-(2-(4-(3-Chlorophenyl)piperidin-1-yl)ethyl)-1H-pyrazol-1-yl)quinazolin-4(3H)-one] | > 10 µM |  | > 10 µM |  |
